Test results reported in article PMC3462190, “A Peptidic Unconjugated GRP78/BiP Ligand Modulates the Unfolded Protein Response and Induces Prostate Cancer Cell Death” (PLoS ONE, 2012).
Where no end group is shown, it is not given here.

Test system: GRP78/BiP
Experiment: GST pull-down with GRP78/BiP
Type: binding
Settings: for interaction with GRP78/BiP: GST-fused protein/peptide, 22Rv.1 cell lysate, Western blot
Protocol: Expression of GST fusion proteins for GST-pull-down experiments were performed essentially as described previously.
Figure 1 Bag-1 proteins interact with the molecular chaperone GRP78/BiP. A. The Bag-1 family of proteins binds GRP78/BiP. GST pull-down assay was performed incubating 5 µg each of GST-fused Bag-1 proteins with 400 µg of 22Rv.1 cell lysate. Western blotting with a specific antibodiy against GRP78/BiP was used to detect the binding and an anti-GST antibody was used to determine the amount of bacterially purified protein employed in the assay. B. Bag-1 and GRP78 interact in vivo. GRP78 was immunoprecipitated with an anti-GRP78/BiP antibody or IgG as control in 22Rv.1 cells. Western blotting with an anti-Bag-1 and anti-GRP78 antibody was performed to determine GRP78-Bag-1 interaction. C. Bag-1 and GRP78/BiP show a perinuclear colocalization. Confocal microscopic analyses were carried out in 22Rv.1 cells that have been paraformaldehyde-fixed and stained with a Bag-1 antibody to detect Bag-1 (green channel) and a GRP78/BiP specific antibody to detect GRP78/BiP (red channel). The orange staining in the merge of the two channels indicates the degree of co-localization of the two proteins. All images (40X) were acquired with a Leica TCS SPE confocal microscope (Leica Microsystems; Scale bars indicate 25 µm). D. Diagrammatic representation of the domains of GRP78. E. Bag-1 binds to multiple sites on GRP78. GST-pull down assay performed incubating 500 µg lysate of HEK-293 cells transfected with an HA-tagged Bag-1 and 10 µg GST-fused GRP78 full length and its ATPase and substrate binding domain (SBD). Western blot analysis was carried out using an HA antibody to detect the Bag-1-tagged protein.
Figure 5 An N-terminal unfolded fragment of the Bag-1 peptide is sufficient to reduce tumor cell growth. A. Schematic diagram of the Bag-1 peptide and its deletion mutants. The ubiquitin-like domain is represented in blue and the BAG domain in red. The numbers refer to the amino acid positions of the different domains. The amino acid residues are numbered following the numbering for Bag-1L. B. Prediction of the secondary structure of the Bag-1 peptide, showing an N-terminal β-hairpin from the ubiquitin-like domain (blue) and a C-terminal α-helix from the BAG domain (red). C. Normalized circular dichroism spectra of the Bag-1 peptides. 30 µM of the Bag-1 peptide were measured in 20 mM KHPO4 buffer, pH 6.8 (black line). […] 12 µM of the N-term peptide (green line) and 11 µM of C-term (blue line) were measured under the same conditions. […] Cells transfected with the indicated constructs were selected in medium containing neomycin and the colonies formed were quantified. […] Tumor size was measured once per week using a caliper and expressed as tumor volume in mm^3. […]

Molecule	interaction with GRP78/BiP	interaction with full length GRP78/BiP (10 µg GST-fused GRP78 full length, lysate of HEK-293 cells expressing HA-tagged Bag-1)
C-terminal peptide: 28 C-terminal fragment of the Bag-1 peptide (Bag-1L 241–269) (EKIADQLEELNKELTGIQQGFLPKDLQAE; not fully specified)	not the C-terminal peptide bound to GRP78/BiP	
N-terminal peptide: N-terminal 40 residues of the Bag-1 peptide (Bag-1L 202–241) (TPLSALGIQDGCRVMLIGKKNSPQEEVELKKLKHLEKSVE; not fully specified)	bound to GRP78/BiP	
ΔUbi peptide: Bag-1 peptide lacking the ubiquitin-like domain portion (Bag-1L 220–269) (KKNSPQEEVELKKLKHLEKSVEKIADQLEELNKELTGIQQGFLPKDLQAE; not fully specified)	abrogated the binding to GRP78	
Bag-1: cochaperone Bag-1, HA-tagged (pcDNA3.1-HA-Bag-1), or endogenous (protein, left off: HA, end not stated, kept, cochaperone Bag-1, HA-tagged (pcDNA3.1-HA-Bag-1), or endogenous) TPLSALGIQDGCRVMLIGKKNSPQEEVELKKLKHLEKSVEKIADQLEELNKELTGIQQGFLPKDLQAE		interacted not only with the full length GRP78/BiP
